The results in this text go back to the supplement of paper PMC11208160.

The data set can be described thus: recombinant barcode read abundance after kanamycin selection (control-corrected) (log10(CPM+1)); higher = more efficient recombination; sequences stand for … in AGTGCAGAGAAAATCGGCCAGTTTTCTCTGCCTGCAGTCCGCATGCCGT…AGATTTATGCAGCGGACTGCCTTTCTCCCAAAGTGATAAACCGGACAGTATCATGGACCGGTTTTCCCGGTAATCCGTATTTGCAAGGTTGGTTTCACT; site = the 11-nt target. An outline of the steps:
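Pooled oligos, each joining a target to an IS621 bridge RNA target-binding loop, were cloned and co-electroporated with a donor plasmid into E. coli. Selective plates carried chloramphenicol/ampicillin/kanamycin and 0.1 mM IPTG, while chloramphenicol/ampicillin LB agar served as control, with two replicates of each. Recombination efficiency rests on averaged, control-corrected counts per million of barcodes at recombinant junctions, shown as log10(CPM+1).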
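Note: IS621 recombinase and bridge RNA in Escherichia coli cells.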

For the sequence “CTAACTGCTTGGGTTCTAACCTGTTGCGT (site TCCCAAACTGT)”, the “recombinant barcode read abundance (log10)” value is 0.177.

For “CTAAGAACTTGGGTTCTAACCTGTTGCCT (site CTAAGAACTAA)”, the “recombinant barcode read abundance (log10)” value amounted to 0.0228. With “CTAAGAACTTGGGTTCTAACCTGTTGCCT (site CTAAGAACTAC)” the figure was 1.05; with “CTAAGAACTTGGGTTCTAACCTGTTGCCT (site CTAAGAACTAG)”, 0.604; with “CTAAGAACTTGGGTTCTAACCTGTTGCCT (site CTAAGAACTAT)”, 0. In the case of “CTAAGATCTTGGGTTCTAACCTGTTGCCT (site CAAAGATCTAG)”, the “recombinant barcode read abundance (log10)” value was 0.0172. In the case of “CTAAGATCTTGGGTTCTAACCTGTTGCCT (site CCAAGATCTAG)”, the “recombinant barcode read abundance (log10)” value amounted to 0.119.

For “CTAAGATCTTGGGTTCTAACCTGTTGCCT (site CGAAGATCTAG)”, the “recombinant barcode read abundance (log10)” value came to 0.0614. With “CTAAGATCTTGGGTTCTAACCTGTTGCCT (site CTAAGATCTAG)” the figure was 0.169; with “CTAAGCTCTTGGGTTCTAACCTGTTGCTA (site CTAAGCTCTAA)”, 0.0436. With “CTAAGCTCTTGGGTTCTAACCTGTTGCTA (site CTAAGCTCTCA)” the figure was 0.0617. For the sequence “CTAAGCTCTTGGGTTCTAACCTGTTGCTA (site CTAAGCTCTGA)”, the “recombinant barcode read abundance (log10)” value was found to be 0.172. For the sequence “CTAAGCTCTTGGGTTCTAACCTGTTGCTA (site CTAAGCTCTTA)”, the “recombinant barcode read abundance (log10)” value turned out to be 0.939. With “CTAAGGACTTGGGTTCTAACCTGTTGCTA (site CGAAGGACTTA)”, the “recombinant barcode read abundance (log10)” value worked out at 0.0114.

In the case of “CTAAGGACTTGGGTTCTAACCTGTTGCTA (site CTAAGGACTTA)”, the “recombinant barcode read abundance (log10)” value was 1.11.

In the case of “CTAAGGCCTTGGGTTCTAACCTGTTGCAT (site AAGTCCTCTCA)”, the “recombinant barcode read abundance (log10)” value was found to be 0.428. Regarding “CTAAGGCCTTGGGTTCTAACCTGTTGCAT (site CTAAGGCCTAT)”, the “recombinant barcode read abundance (log10)” value stood at 1.85. With “CTAAGGGCTTGGGTTCTAACCTGTTGCTG (site CTAAGGACTAA)” the figure was 0.314; with “CTAAGGGCTTGGGTTCTAACCTGTTGCTG (site CTAAGGGCTCA)”, 0.772. With “CTAAGGTCTTGGGTTCTAACCTGTTGCGT (site CTAAGGTCTAA)” the figure was 0.31; with “CTAAGGTCTTGGGTTCTAACCTGTTGCGT (site CTAAGGTCTAC)”, 2.69; with “CTAAGGTCTTGGGTTCTAACCTGTTGCGT (site CTAAGGTCTAG)”, 0.209.

With “CTAAGGTCTTGGGTTCTAACCTGTTGCGT (site CTAAGGTCTAT)”, the “recombinant barcode read abundance (log10)” value was 1.9. The result for “CTAAGGTCTTGGGTTCTAACCTGTTGCTT (site CTAAGGTCTAA)” reads 0.462; that for “CTAAGGTCTTGGGTTCTAACCTGTTGCTT (site CTAAGGTCTAC)”, 0.132. The result for “CTAAGGTCTTGGGTTCTAACCTGTTGCTT (site CTAAGGTCTAG)” reads 0.186; that for “CTAAGGTCTTGGGTTCTAACCTGTTGCTT (site CTAAGGTCTAT)”, 0.886; that for “CTAAGTACTTGGGTTCTAACCTGTTGCAG (site CTAAGTACTCT)”, 1.56. The result for “CTAAGTACTTGGGTTCTAACCTGTTGCAG (site CTAATTACTTT)” reads 0.56. For the sequence “CTAATATCTTGGGTTCTAACCTGTTGCAT (site AATGGTCCTTG)”, the “recombinant barcode read abundance (log10)” value was 0.105. In the case of “CTAATATCTTGGGTTCTAACCTGTTGCAT (site CTAATATCTAT)”, the “recombinant barcode read abundance (log10)” value amounted to 1.26. The result for “CTAATCCCTTGGGTTCTAACCTGTTGCAT (site CATATCCCTAT)” reads 0.0276; that for “CTAATCCCTTGGGTTCTAACCTGTTGCAT (site CTAATCCCTAT)”, 1.59. With “CTAATGGCTTGGGTTCTAACCTGTTGCCT (site CTAATAGCTAG)” the figure was 0.176.

On to “CTAATGGCTTGGGTTCTAACCTGTTGCCT (site CTAATGGCTAG)”, for which the “recombinant barcode read abundance (log10)” value came to 0.178. The result for “CTACAACCTTGGGTTCTAACCTGTTGCAG (site CTACAACCTCT)” reads 2.02. The result for “CTACAACCTTGGGTTCTAACCTGTTGCAG (site TGGACTACTGA)” reads 0.25; that for “CTACACACTTGGGTTCTAACCTGTTGCTA (site CTACACACTGA)”, 0.00924.

Regarding “CTACACACTTGGGTTCTAACCTGTTGCTA (site CTACACACTTA)”, the “recombinant barcode read abundance (log10)” value turned out to be 1.91. With “CTACACCCTTGGGTTCTAACCTGTTGCGA (site CTAAACCCTAC)” the figure was 0.0483. “CTACACCCTTGGGTTCTAACCTGTTGCGA (site CTACACCCTTC)”: the “recombinant barcode read abundance (log10)” value was 2.39. With “CTACATCCTTGGGTTCTAACCTGTTGCTT (site CTACAACCTAA)” the figure was 0.00817; with “CTACATCCTTGGGTTCTAACCTGTTGCTT (site CTACACCCTAA)”, 0.157.

With “CTACATCCTTGGGTTCTAACCTGTTGCTT (site CTACAGCCTAA)”, the “recombinant barcode read abundance (log10)” value stood at 0.0896. The result for “CTACATCCTTGGGTTCTAACCTGTTGCTT (site CTACATCCTAA)” reads 1.49. The result for “CTACCTACTTGGGTTCTAACCTGTTGCGG (site AATATCTCTTG)” reads 0.224; that for “CTACCTACTTGGGTTCTAACCTGTTGCGG (site CTACCTACTCC)”, 2.72. The result for “CTACGAACTTGGGTTCTAACCTGTTGCGG (site CTACGAACTCC)” reads 2.17; that for “CTACGAACTTGGGTTCTAACCTGTTGCGG (site TGGACCTCTTG)”, 0.181. As for “CTACGACCTTGGGTTCTAACCTGTTGCAG (site CTACGACCTCT)”, the “recombinant barcode read abundance (log10)” value was 2.56.

For the sequence “CTACGACCTTGGGTTCTAACCTGTTGCAG (site TACGATACTAC)”, the “recombinant barcode read abundance (log10)” value is 0.186. With “CTACGACCTTGGGTTCTAACCTGTTGCGG (site CTACGACCTCC)”, the “recombinant barcode read abundance (log10)” value came out at 2.9.

“CTACGACCTTGGGTTCTAACCTGTTGCGG (site TACAAGTCTAG)”: the “recombinant barcode read abundance (log10)” value turned out to be 0.164. With “CTACGCGCTTGGGTTCTAACCTGTTGCTT (site CTACGCGCTAA)” the figure was 0.921. Consider “CTACGCGCTTGGGTTCTAACCTGTTGCTT (site GTACGCGCTAC)”, for which the “recombinant barcode read abundance (log10)” value came out at 0.309. With “CTACGGCCTTGGGTTCTAACCTGTTGCGT (site CTACGGCCTAC)” the figure was 1.05; with “CTACGGCCTTGGGTTCTAACCTGTTGCGT (site GGACGGCCTAC)”, 0.281; with “CTAGACTCTTGGGTTCTAACCTGTTGCAC (site CTAGACTCTAT)”, 0.626. With “CTAGACTCTTGGGTTCTAACCTGTTGCAC (site CTAGACTCTCT)” the figure was 0.0956; with “CTAGACTCTTGGGTTCTAACCTGTTGCAC (site CTAGACTCTGT)”, 2.77; with “CTAGACTCTTGGGTTCTAACCTGTTGCAC (site CTAGACTCTTT)”, 0.11.

On to “CTAGACTCTTGGGTTCTAACCTGTTGCAG (site CTAGACTCTAT)”, for which the “recombinant barcode read abundance (log10)” value was found to be 0.88.

Turning to “CTAGACTCTTGGGTTCTAACCTGTTGCAG (site CTAGACTCTCT)”, the “recombinant barcode read abundance (log10)” value turned out to be 2.42. With “CTAGACTCTTGGGTTCTAACCTGTTGCAG (site CTAGACTCTGT)” the figure was 1.16; with “CTAGACTCTTGGGTTCTAACCTGTTGCAG (site CTAGACTCTTT)”, 0.376; with “CTAGCGACTTGGGTTCTAACCTGTTGCAC (site AGGAGAGCTAA)”, 0.409. On to “CTAGCGACTTGGGTTCTAACCTGTTGCAC (site CTAGCGACTGT)”, for which the “recombinant barcode read abundance (log10)” value was 1.15. The result for “CTAGCGACTTGGGTTCTAACCTGTTGCCG (site ACGCTATCTAA)” reads 0.102. The result for “CTAGCGACTTGGGTTCTAACCTGTTGCCG (site CTAGCGACTCG)” reads 0.834; that for “CTAGCTCCTTGGGTTCTAACCTGTTGCTT (site CTAGCTCCTAA)”, 0.0882; that for “CTAGCTCCTTGGGTTCTAACCTGTTGCTT (site GCTTGGTCTTC)”, 0.0776.

On to “CTAGGAGCTTGGGTTCTAACCTGTTGCCT (site CTAGGACCTTG)”, for which the “recombinant barcode read abundance (log10)” value was 0.0183. With “CTAGGAGCTTGGGTTCTAACCTGTTGCCT (site CTAGGAGCTAG)” the figure was 0.148; with “CTAGGAGCTTGGGTTCTAACCTGTTGCTA (site CTAGGAGCTAA)”, 0.137; with “CTAGGAGCTTGGGTTCTAACCTGTTGCTA (site CTAGGAGCTCA)”, 0.231. Regarding “CTAGGAGCTTGGGTTCTAACCTGTTGCTA (site CTAGGAGCTGA)”, the “recombinant barcode read abundance (log10)” value amounted to 0.0444.

On to “CTAGGAGCTTGGGTTCTAACCTGTTGCTA (site CTAGGAGCTTA)”, for which the “recombinant barcode read abundance (log10)” value turned out to be 1.23.
